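Method: 48-hour compound exposure of cells in 96-well plates, five concentrations, linear interpolation of endpoints. TGI is the concentration that stops growth completely.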
Key:
Experiment in all cases: inhibition of tumour cell growth, NCI panel, 48 h
CCRF-CEM leukemia = system: CCRF-CEM leukemia
DMS 114 small cell lung = system: DMS 114 small cell lung
COLO 205 colon = system: COLO 205 colon
HOP-62 NSCLC = system: HOP-62 NSCLC
HOP-18 NSCLC = system: HOP-18 NSCLC
A498 renal = system: A498 renal
UO-31 renal = system: UO-31 renal
OVCAR-4 ovarian = system: OVCAR-4 ovarian
SK-MEL-28 melanoma = system: SK-MEL-28 melanoma
TK-10 renal = system: TK-10 renal
CAKI-1 renal = system: CAKI-1 renal
LOX IMVI melanoma = system: LOX IMVI melanoma
UACC-257 melanoma = system: UACC-257 melanoma
OVCAR-5 ovarian = system: OVCAR-5 ovarian
U251 CNS = system: U251 CNS
NCI-H23 lung = system: NCI-H23 lung
A549 NSCLC = system: A549 NSCLC
SF-295 CNS = system: SF-295 CNS
KM20L2 colon = system: KM20L2 colon
SF-268 CNS = system: SF-268 CNS
M19-MEL melanoma = system: M19-MEL melanoma
SK-OV-3 ovarian = system: SK-OV-3 ovarian
SR leukemia = system: SR leukemia
UACC-62 melanoma = system: UACC-62 melanoma
OVCAR-8 ovarian = system: OVCAR-8 ovarian
IGROV1 ovarian = system: IGROV1 ovarian
ACHN renal = system: ACHN renal
K-562 leukemia = system: K-562 leukemia
HCT-116 colon = system: HCT-116 colon
HOP-92 NSCLC = system: HOP-92 NSCLC
DMS 273 small cell lung = system: DMS 273 small cell lung
HCC-2998 colon = system: HCC-2998 colon
NCI-H460 lung = system: NCI-H460 lung
SW-620 colon = system: SW-620 colon
M14 melanoma = system: M14 melanoma
DLD-1 colon = system: DLD-1 colon
MALME-3M melanoma = system: MALME-3M melanoma
SNB-19 CNS = system: SNB-19 CNS
HL-60(TB) leukemia = system: HL-60(TB) leukemia
RPMI-8226 leukemia = system: RPMI-8226 leukemia
LXFL 529 NSCLC = system: LXFL 529 NSCLC
786-0 renal = system: 786-0 renal
SK-MEL-5 melanoma = system: SK-MEL-5 melanoma
NCI-H226 lung = system: NCI-H226 lung
HT29 colon = system: HT29 colon
HCT-15 colon = system: HCT-15 colon
MOLT-4 leukemia = system: MOLT-4 leukemia
SN12C renal = system: SN12C renal
OVCAR-3 ovarian = system: OVCAR-3 ovarian

Question: Which TGI (CCRF-CEM leukemia) does the source give for `Cc1ccc(S(=O)(=O)OCC23CCC(C2)C2CC23)cc1` (centres undefined) here?
Answer: > 100 µM

Question: What about the TGI (DMS 114 small cell lung) of the same compound?
Answer: > 100 µM

Question: And the TGI (COLO 205 colon)?
Answer: > 100 µM

Question: And the TGI (HOP-62 NSCLC)?
Answer: > 100 µM

Question: What about the TGI (HOP-18 NSCLC) of the same compound?
Answer: > 100 µM

Question: And the TGI (A498 renal)?
Answer: > 100 µM

Question: What about the TGI (UO-31 renal) of the same compound?
Answer: > 100 µM

Question: What about the TGI (OVCAR-4 ovarian) of the same compound?
Answer: > 100 µM

Question: And the TGI (SK-MEL-28 melanoma)?
Answer: > 100 µM

Question: What about the TGI (TK-10 renal) of the same compound?
Answer: > 100 µM

Question: What about the TGI (CAKI-1 renal) of the same compound?
Answer: > 100 µM

Question: What about the TGI (LOX IMVI melanoma) of the same compound?
Answer: > 100 µM

Question: And the TGI (UACC-257 melanoma)?
Answer: > 100 µM

Question: What about the TGI (OVCAR-5 ovarian) of the same compound?
Answer: > 100 µM

Question: What about the TGI (U251 CNS) of the same compound?
Answer: > 100 µM

Question: And the TGI (NCI-H23 lung)?
Answer: > 100 µM

Question: What about the TGI (A549 NSCLC) of the same compound?
Answer: > 100 µM

Question: What about the TGI (SF-295 CNS) of the same compound?
Answer: > 100 µM

Question: And the TGI (KM20L2 colon)?
Answer: > 100 µM

Question: And the TGI (SF-268 CNS)?
Answer: > 100 µM

Question: What about the TGI (M19-MEL melanoma) of the same compound?
Answer: > 100 µM

Question: What about the TGI (SK-OV-3 ovarian) of the same compound?
Answer: > 100 µM

Question: What about the TGI (SR leukemia) of the same compound?
Answer: > 100 µM

Question: What about the TGI (UACC-62 melanoma) of the same compound?
Answer: > 100 µM

Question: And the TGI (OVCAR-8 ovarian)?
Answer: > 100 µM

Question: What about the TGI (IGROV1 ovarian) of the same compound?
Answer: > 100 µM

Question: What about the TGI (ACHN renal) of the same compound?
Answer: > 100 µM

Question: And the TGI (K-562 leukemia)?
Answer: > 100 µM

Question: And the TGI (HCT-116 colon)?
Answer: > 100 µM

Question: What about the TGI (HOP-92 NSCLC) of the same compound?
Answer: 94.8 µM

Question: And the TGI (DMS 273 small cell lung)?
Answer: > 100 µM

Question: And the TGI (HCC-2998 colon)?
Answer: > 100 µM

Question: And the TGI (NCI-H460 lung)?
Answer: > 100 µM

Question: What about the TGI (SW-620 colon) of the same compound?
Answer: > 100 µM

Question: And the TGI (M14 melanoma)?
Answer: > 100 µM

Question: What about the TGI (DLD-1 colon) of the same compound?
Answer: > 100 µM

Question: What about the TGI (MALME-3M melanoma) of the same compound?
Answer: > 100 µM

Question: What about the TGI (SNB-19 CNS) of the same compound?
Answer: > 100 µM

Question: And the TGI (HL-60(TB) leukemia)?
Answer: 98.8 µM

Question: What about the TGI (RPMI-8226 leukemia) of the same compound?
Answer: > 100 µM

Question: And the TGI (LXFL 529 NSCLC)?
Answer: > 100 µM

Question: And the TGI (786-0 renal)?
Answer: > 100 µM

Question: And the TGI (SK-MEL-5 melanoma)?
Answer: > 100 µM

Question: And the TGI (NCI-H226 lung)?
Answer: > 100 µM

Question: And the TGI (HT29 colon)?
Answer: > 100 µM

Question: And the TGI (HCT-15 colon)?
Answer: > 100 µM

Question: What about the TGI (MOLT-4 leukemia) of the same compound?
Answer: > 100 µM

Question: What about the TGI (SN12C renal) of the same compound?
Answer: > 100 µM

Question: And the TGI (OVCAR-3 ovarian)?
Answer: > 100 µM
